System: LPS-challenged mice
Assay: LPS-induced mortality in mouse endotoxemia model
Assay type: in vivo, C57BL/6 mice
Conditions: 5 mg/kg retro-orbital prior to i.p. LPS; 10 mice/group; Kaplan-Meier

Integrilin
LPS-induced mortality (Integrilin): showed a trend in reducing
